# Results: PMC9458217, “Synthesis and Biological Evaluation of Cassane Diterpene (5α)-Vuacapane-8(14), 9(11)-Diene and of Some Related Compounds” (Molecules, 2022)
# Where “and” joins values, the source holds several entries; their conditions need not be identical. Identical values can stand only once. Like-named read-outs stand apart in the source and are kept apart here.
# How the values were obtained:
# [1] = test system: RAW 264.7 monocyte/macrophage murine cells; experiment: MTT cytotoxicity on RAW 264.7 cells; assay type: cell-based; settings: Mus musculus
# Procedure: MTT is transformed to formazan in cells with metabolism capacity (viable cells), as the number of viable cells is proportional to formazan concentration; this assay was used to determine the cytotoxicity of the compounds.
# In all experiments, subconfluent monolayer cells were used.
# The effect of compounds on the cell viability was determined by the MTT method (Sigma, St. Louis, MO, USA). The cytotoxicity of the compounds was detected by measuring the absorbance of MTT dye staining of cells with metabolism capacity. […] Finally, after 72 h, 100 μL of MTT solution (0.5 mg/mL) in 50% of PBS and 50% of the medium was added to each well. After 1.5 h of incubation, formazan was re-suspended in 100 μL of DMSO, and each concentration was tested in triplicate.
# (§1) Experimental cytotoxicity data were fitted to a sigmoidal function (y = ymax/ (x/a)^−b) by non-linear regression. […] Similar analyses were performed to obtain the IC50 of NO production (IC50 NO). All shown data are representative of at least two independent experiments performed in triplicate. All quantitative data were summarized as the means ± standard deviation (SD).
# [2] = test system: HT29 colon adenocarcinoma cells; experiment: HT29 cell cycle arrest and distribution, flow cytometry with PI; assay type: cell-based, human; settings: for decrease in S phase cell percentage / increase of G0/G1 phase population with respect to untreated control: 72 h
# Source text: Flow cytometry was used to measure DNA ploidy and to determine possible alterations in cell cycle profiles. […]. […] […]. Changes in the G2/M phase were less significant. Although changes in the cell cycle were observed, they were of a lower magnitude and insignificant for compound 20. Therefore, those changes could be produced by the apoptotic process activation and not by cytostatic or differentiation process induction. […]. Further assays will be necessary to asseverate this point.
# The method was performed by flow cytometry after propidium iodide staining (PI). […]. After that, cells were stored on ice and were stained with 20 µL of 1 mg/mL PI solution just before measurement. Approximately 10 × 10^3 cells were analysed in each experiment. The experiments were performed three times with two replicates per assay. Finally, the samples were analysed using a flow cytometer and the number of cells in each stage of the cell cycle was estimated by fluorescence-associated cell sorting (FACS) at 488 nm in an Epics XL flow cytometer (Coulter Corporation, Hialeah, FL, USA).
# HT29 cells = experiment: Annexin V-FITC/PI flow cytometry (apoptosis) in HT29 cells; assay type: cell-based, human; settings: 72 h
# Procedure: Most currently used anticancer drugs trigger the apoptosis process as a key target and induce it in cancer cells. Phosphatidylserine (PS) externalization is a typical characteristic of early phase apoptosis. […].
# As such wise, apoptosis was assessed by flow cytometry using a FACScan (fluorescence-activated cell sorter) flow cytometer (Coulter Corporation, Hialeah, FL, USA). For this assay, 5 × 10^4 HT29 cells were plated in 24-well plates with 1.5 mL of medium and incubated for 24 h. […] The cells were collected and resuspended in a binding buffer (10 mM HEPES/NaOH, pH 7.4, 140 mM NaCl, 2.5 mM CaCl2). At room temperature in darkness, Annexin V-FITC conjugate (1 μg/mL) was then added and incubated for 15 min. Cells were stained with 5 μL of 1 mg/mL PI solution, just before the analysis. In each experiment, approximately 10 × 10^3 cells were analyzed, and the experiment was duplicated twice.
# [3] = test system: colon adenocarcinoma HT29 cells; experiment: Mitochondrial membrane potential, Rh123/PI flow cytometry in HT29 cells; assay type: cell-based, human; settings: HT29, IC50 and IC80 concentrations, 72 h
# Source text: The apoptotic effects of anticancer agents can occur through the activation of two major apoptotic pathways: intrinsic and extrinsic apoptotic pathways, Thus, the study of the loss of the mitochondrial membrane potential (MMP) of tumor cells can provide information on the activation mechanism and the apoptotic pathway induced in response to anticancer compounds. When the mitochondria undergo disruption and are involved in the loss of MMP, the activation is then intrinsic (mitochondrial).
# The electrochemical gradient across the mitochondrial membrane was studied by analytical flow cytometry using dihydrorhodamine (DHR). […] The medium renewal was achieved by adding fresh medium with DHR to a final concentration of […]. […] The fluorescence intensity was measured using a FACScan flow cytometer (fluorescence-activated cell sorter). The experiments were performed three times with two replicates per assay.
# [4] = test system: LPS-induced J774.A1 macrophage cells; design: method as in PMID 34990974; settings: 50 μM, natural compounds; cited from earlier work
# [5] = test system: HT29 human colorectal adenocarcinoma cell line; experiment: MTT cytotoxicity on HT29 cells; settings: HT-29, 72 h
# Procedure: (§2) These studies were performed using the MTT assay, based on formazan dye formation and expressed as a percentage with respect to untreated control cells (100% of cell metabolism).
# (§3) The effect of compounds on the cell viability was determined by the MTT method [27] (Sigma, St. Louis, MO, USA). The cytotoxicity of the compounds was detected by measuring the absorbance of MTT dye staining of cells with metabolism capacity. […] Finally, after 72 h, 100 μL of MTT solution (0.5 mg/mL) in 50% of PBS and 50% of the medium was added to each well. After 1.5 h of incubation, formazan was re-suspended in 100 μL of DMSO, and each concentration was tested in triplicate.
# (§4) Experimental cytotoxicity data were fitted to a sigmoidal function (y = ymax/ (x/a)^−b) by non-linear regression. […] All shown data are representative of at least two independent experiments performed in triplicate. All quantitative data were summarized as the means ± standard deviation (SD).
# [6] = test system: LPS-stimulated RAW 264.7 murine macrophage cells; experiment: Inhibition of NO production (nitrite, Griess reaction) in LPS-stimulated RAW 264.7 cells; assay type: cell-based; settings: LPS-activated RAW 264.7, 72 h of incubation
# Procedure: The activation of the inflammatory process induces nitric oxide, NO, released as a second messenger. NO production can be used as the main indicator to assess inflammatory activity, which can be measured using nitrite (NO^2–) quantification (proportional to the released NO), determined through the Griess reaction. […] Inhibition percentages were calculated with respect to the increase between positive control (only LPS treated control cells) and negative control (untreated control cells).
# The absorbance was referred to nitrite standard curve to determine the concentration of nitrite in the supernatant of each experimental sample. The percentage of NO production was determined, assigning 100% at the increase between negative control (untreated cells) and positive control (cells only treated with 10 μg/mL of LPS).
# as §1
# [7] = test system: RAW 264.7 cells, activated by LPS; experiment: Cell cycle distribution of LPS-activated RAW 264.7 cells, flow cytometry with PI; assay type: cell-based, murine
# Procedure: The cell-cycle distribution was analyzed by flow cytometry with propidium iodide (IP) staining (Figure 3). Significant growth arrest of the cell cycle in LPS-induced RAW 264.7 cells produced 100% detention in the G0/G1 phase (positive control) compared to the negative control (49.6%). After incubation with compound 20, the percentage of cells found in the G0/G1 phase was 29%, 32%, and 36%, respectively, at the assayed concentrations. Similar results were found for compound 16 (35%, 38%, and 39%) after 72 h of incubation at the same concentrations. This decrease was accompanied by the consequent increase in the number of cells in the S phase: 70%, 68%, and 56%, respectively, for compound 20, and 63%, 61%, and 59% for compound 16. […] This recovery of the cell cycle with respect to control cells (only LPS treated) could be a consequence of the anti-inflammatory effect produced by the tested compounds, which increase cell division, rescuing RAW 264.7 cells from LPS-induced arrest during their monocyte/macrophage differentiation process.
# DNA content is directly proportional to the PI fluorescence; it allows us to determine the percentage of cells in each cell cycle phase. Using a fluorescence-activated cell sorter (FACS) at 488 nm in an Epics XL flow cytometer (Coulter Corporation, Hialeah, FL, USA), cell subpopulations could be visualized with different DNA contents. […] By treating cells only with LPS, the positive control was performed. However, the negative control was prepared, exposing cells […]. After treatment, cells were washed twice with PBS and trypsine solution, then resuspended in TBS 1X (10 Mm Tris, 150 Mm NaCl) and then Vindelov buffer (100 mM Tris, 100 Mm NaCl, 10 mg/mL Rnasa, 1 mg/mL PI, pH 8) was added. The samples were placed for 15 min on ice. Immediately before FACS analysis, cells were stained with 20 μL of 1 mg/mL PI solution. Data were analyzed to determine the percentage of cells in each cell cycle phase (G0/G1, S, and G2/M).
# [8] = test system: HepG2 human hepatocarcinome cell-line; experiment: MTT cytotoxicity on HepG2 cells; settings: HepG2, 72 h
# Procedure: as §2, §3, §4
# Staphylococcus aureus = test system: Staphylococcus aureus; design: method as in PMID 17418286; settings: cited from earlier work
# Micrococcus flavus = test system: Micrococcus flavus; design: method as in PMID 17418286; settings: cited from earlier work
# NO = test system: NO; design: method as in PMID 34990974; settings: read-out: NO inhibition IC50; cited from earlier work
smiles,measurement,setting,value
"Cc1c2c(cc3c1CCC1C(C)(C)CCCC31C)OC(O)C2 (centres unmarked) [Compound 6, pterolobirin G]",IC20,"[1]; RAW264.7, 72 h",12.7 ± 0.3 µg/mL
same,IC50,"[1]; RAW264.7, 72 h",15 ± 0.32 µg/mL
same,IC80,"[1]; RAW264.7, 72 h",18.6 ± 0.45 µg/mL
same,decrease in S phase cell percentage,"[2]; HT29, IC50 concentration",17.3%
same,increase of G0/G1 phase population with respect to untreated control,"[2]; HT29, IC50 concentration",13.6%
same,decrease in S phase cell percentage,"[2]; HT29, IC80 concentration",30.36%
same,increase of G0/G1 phase population with respect to untreated control,"[2]; HT29, IC80 concentration",29%
same,total apoptosis (early plus late apoptotic cells),"HT29 cells; HT29, IC50 concentration",18.30%
same,early apoptosis,"HT29 cells; HT29, IC80 concentration",48.83%
same,late apoptosis,"HT29 cells; HT29, IC80 concentration",23%
same,total apoptosis (early plus late apoptotic cells),"HT29 cells; HT29, IC80 concentration",80%
same,"changes in mitochondrial membrane potential (MMP), Rh123 staining",[3],did not produce any changes in MMP
same,inhibition of NO production,[4],did not show any significant inhibition of NO production
same,IC50,[5],~3 µg/mL
Cc1c(C=O)c(O)cc2c1CC[C@H]1C(C)(C)CCC[C@]21C [Compound 20],IC20,"[1]; RAW264.7, RAW 264.7, MTT, 72 h of incubation, 20% cell viability inhibition, read-out: IC20",7.86 ± 3.97 µg/mL
same,IC80,"[1]; RAW264.7, RAW 264.7, MTT, 72 h of incubation, 80% cell viability inhibition, read-out: IC80",9.35 ± 0.95 µg/mL
same,IC50,"[1]; RAW264.7, RAW 264.7, MTT, 72 h of incubation, read-out: IC50",8.34 ± 2.51 µg/mL
same,IC50 NO,[6],2.98 ± 0.04 µg/mL
same,IC50,"[6]; Mus musculus, RAW264.7, 72 h",5.71 ± 0.14 µg/mL
same,cells in the S phase,"[7]; ¼ IC50, 72 h",70%
same,percentage of cells in the G0/G1 phase,"[7]; ¼ IC50, 72 h, LPS control 100%, negative control 49.6%",29%
same,changes in the G2/M phase,"[7]; ¼, ½ and ¾ IC50, 72 h",not significant
same,cells in the S phase,"[7]; ½ IC50, 72 h",68%
same,percentage of cells in the G0/G1 phase,"[7]; ½ IC50, 72 h",32%
same,cells in the S phase,"[7]; ¾ IC50, 72 h",56%
same,percentage of cells in the G0/G1 phase,"[7]; ¾ IC50, 72 h",36%
same,cell cycle arrest at the G0/G1 phase (cell percentage),"[2]; HT29, IC50 concentration",63.6%
same,decrease in S phase cell percentage,"[2]; HT29, IC50 concentration",6%
same,increase of G0/G1 phase population with respect to untreated control,"[2]; HT29, IC50 concentration",6%
same,cell cycle arrest at the G0/G1 phase (cell percentage),"[2]; HT29, IC80 concentration",66.6%
same,decrease in S phase cell percentage,"[2]; HT29, IC80 concentration",10.7%
same,increase of G0/G1 phase population with respect to untreated control,"[2]; HT29, IC80 concentration",9%
same,early apoptosis,"HT29 cells; HT29, IC50 concentration",27.57%
same,late apoptosis,"HT29 cells; HT29, IC50 concentration",49.97%
same,total apoptosis (early plus late apoptotic cells),"HT29 cells; HT29, IC50 concentration",76.25%
same,early apoptosis,"HT29 cells; HT29, IC80 concentration",41.40%
same,late apoptosis,"HT29 cells; HT29, IC80 concentration",45.40%
same,total apoptosis (early plus late apoptotic cells),"HT29 cells; HT29, IC80 concentration",80% and 86.8%
same,"changes in mitochondrial membrane potential (MMP), Rh123 staining",[3],did not produce any changes in MMP
same,IC50,"[5]; HT29, MTT, 72 h",~3 µg/mL
same,IC50,[8],8.41 ± 0.3 µg/mL
COC(=O)[C@@]1(C)CCC[C@]2(C)c3cc4occc4c(C)c3CC[C@@H]12 [benthaminin 1],MIC,Staphylococcus aureus,47.8 µM
same,MIC,Micrococcus flavus,47.8 µM
CC(=O)O[C@H]1Cc2c(cc3occc3c2C)[C@@]2(C)CCCC(C)(C)[C@H]12 [sucutinirane C],IC50,NO,24.4 ± 1.34 µM
